Experimental findings from patent publication US6949565B2, “Protein kinase inhibitors” (Develogen Israel Ltd., priority 2000, dated 2005) are described below.

A word on the IC50: it is the concentration needed to halve the response being measured. Read a high IC50 as lower potency.

For the assay, the system named is PKC. The assay can be described thus: PKC activity inhibition. In kind it is biochemical.

For `O=S(=O)(NCCNCC=Cc1ccc(Br)cc1)c1cccc2cnccc12` [H-89, N-[2-(p-bromocinnamylamino)ethyl]-5-isoquinolinesulfonamide], the IC50 amounted to 31 µM.
